# Columns and labels:
# Type in all cases: cell-based
# C. albicans ATCC 24433 = experiment: MIC80 broth double-dilution assay; settings: YPAD medium, 30° C., 24 h
# Procedure: (§1) The antifungal activities of the 24 azole-COX inhibitor hybrids were evaluated against a panel of 16 representative strains of different species of the genus Candida. Candida species cause both superficial and systemic infections. The panel included strains of C. albicans, C. glabrata, C. parapsilosis, C. tropicalis, C. guilliermondii, C. dubliniensis, and C. auris (Table S2). To evaluate antifungal activity, the minimal inhibitory concentration 80% (MIC80) values were determined, which were defined as the lowest drug concentrations with turbidity (measured at OD600) less than or equal to that of specific 1:5 dilutions of the growth control. As controls, FLC and VOR, were tested.
# (§2) MIC80 values were determined using the broth microdilution method over a concentration range of 0.003-64 μg/mL. Orange circles represent C. albicans strains, yellow circles represent C. glabrata strains, and green circles represent C. parapsilosis, C. tropicalis, C. dubliniensis and C. auris. Cells were grown in YPAD medium at 30° C. (For C. auris strains 37° C.) 24 h. Each concentration was tested in triplicate, and results were confirmed in at least two independent experiments.
# (§3) C. albicans, C. glabrata, C. parapsilosis, C. guilliermondii, C. tropicalis, and C. dubliniensis MICs were determined using CLSI M27-A3 guidelines with minor modifications. Starter cultures were streaked from glycerol stock onto YPAD agar plates and grown for 24 h at 30° C. Colonies were suspended in 1 mL PBS and diluted to 1×10^−3 OD600 and then diluted 1:100 into fresh medium. Hybrids dissolved in DMSO were added to YPAD broth (32 μL stock solution in 1218 μL of YPAD broth), and serial double dilutions of hybrids in YPAD were prepared in flat-bottomed 96-well microplates (Corning) to enable testing of concentrations ranging from 64 μg/mL to 0.003 μg/mL. Control wells with yeast cells but no drug and blank wells containing only YPAD were prepared. An equal volume (100 μL) of yeast suspensions in YPAD broth was added to each well with the exceptions of the blank wells. MIC values (Tables S4-S6) were determined after 24 h at 30° C. by measuring the OD600 using a plate reader (Infinite M200 PRO, Tecan). MIC values were defined as the point at which the OD600 was reduced by >80% compared to the no-drug wells. Each concentration was tested in triplicate, and results were confirmed by two independent sets of experiments. FLC and VOR were used as control drugs.
# C. dubliniensis T-99 = experiment: MIC80 broth double-dilution assay; settings: YPAD medium, 30° C., 24 h
# Procedure: as §1, §2, §3
# C. albicans SC5314 = experiment: MIC80 broth double-dilution assay; settings: YPAD medium, 30° C., 24 h
# Procedure: as §1, §2, §3
# C. tropicalis 660 = experiment: MIC80 broth double-dilution assay; settings: YPAD medium, 30° C., 24 h
# Procedure: as §1, §2, §3
# [1] = test system: C. parapsilosis ATCC 22019; experiment: MIC80 broth double-dilution assay; settings: YPAD medium, 30° C., 24 h
# Procedure: as §1, §2, §3
# C. albicans P-87 = experiment: MIC80 broth double-dilution assay; settings: YPAD medium, 30° C., 24 h
# Procedure: as §1, §2, §3
# C. albicans ATCC 90028 = experiment: MIC80 broth double-dilution assay; settings: YPAD medium, 30° C., 24 h
# Procedure: as §1, §2, §3
# C. guilliermondii T-47 = experiment: MIC80 broth double-dilution assay; settings: YPAD medium, 30° C., 24 h
# Procedure: as §1, §3
# [2] = test system: C. albicans 742 (erg11ΔΔ/erg3ΔΔ mutant C. albicans strain); experiment: MIC80 broth double-dilution assay, strain lacking CYP51; settings: YPAD medium, 30° C., 24 h; erg11ΔΔ/erg3ΔΔ mutant lacking CYP51
# Procedure: as §1
# (§4) The clinically used FLC and VOR act primarily by preventing ergosterol biosynthesis via inhibition of CYP51. Analysis was done to determine whether fungal growth inhibition by the hybrids required the presence of the ERG11 gene that encodes for CYP51. The antifungal activities of hybrids 1 and 5 and of FLC and VOR were determined against an erg11ΔΔ/erg3ΔΔ mutant C. albicans strain and against C. albicans SN152 from which this double knockout strain was derived (Table S2). […] Yeast growth was followed at OD600 over 48 h in 96-well plates containing serial double dilutions of the tested hybrids.
# as §3
# C. auris ATCC MYA5001 = experiment: MIC broth double-dilution assay with MTT (CLSI M27-A3); settings: YPAD medium, 37° C., 24 h, growth score 0 or 1
# Procedure: (§5) Minimal inhibitory concentration broth double-dilution assay: C. auris minimal inhibitory concentrations (MICs) were determined using CLSI M27-A3 guidelines with minor modifications. Starter cultures were streaked from glycerol stock onto YPAD agar plates and grown for 24 h at 37° C. Colonies were suspended in 1 mL PBS and diluted to 1×10^−3 optical density at 600 nm (OD600) and then diluted 1:100 into fresh medium. hybrids dissolved in DMSO were added to YPAD broth (32 μL stock solution in 1218 μL of YPAD broth), and serial double dilutions of hybrids in YPAD were prepared in flat-bottomed 96-well microplates (Corning) to enable testing of concentrations ranging from 64 μg/mL to 0.007 μg/mL. Control wells with yeast cells but no drug and blank wells containing only YPAD were prepared. An equal volume (100 μL) of yeast suspension in YPAD broth was added to each well with the exceptions of the blank wells. After incubation for 24 h at 37° C., MTT (50 μL of a 1 mg/mL solution in ddH2O) was added to each well followed by additional incubation at 37° C. for 2 h. MIC values (Table S3) were defined as the lowest concentration of an antifungal agent that caused a specified reduction in visible growth as per the CLSI M27-A3 protocol. The magnitude of reduction in visible growth was assessed using the following numerical scale: 0, optically clear; 1, slightly hazy; 2, prominent decrease (˜50%) in visible growth; 3, slight reduction in visible growth; and 4, no reduction in visible growth. The MIC was defined based on reduction in growth to 0 or 1. Results were confirmed in two independent experiments, and each concentration was tested in triplicate. FLC and VOR were used as control drugs.
# C. auris ATCC MYA5002 = experiment: as above; settings: YPAD medium, 37° C., 24 h, growth score 0 or 1
# Procedure: as §5
# [3] = test system: panel of 16 representative strains of different species of the genus Candida; experiment: Antifungal activity (MIC80) against a panel of Candida strains, comparison; settings: azole-susceptible strains
# Procedure: as §1, §2, §3
# C. albicans SN152 = experiment: MIC80 broth double-dilution assay; settings: YPAD medium, 30° C., 24 h; parent strain of the erg11ΔΔ/erg3ΔΔ mutant
# Procedure: as §1, §2, §4, §3
# [4] = test system: erg11ΔΔ/erg3ΔΔ mutant C. albicans; experiment: Growth curve analysis of C. albicans lacking CYP51; settings: entire range of concentrations (64 to 1 μg/mL), YPAD, 30° C., 48 h
# Procedure: as §4
# Cells of erg11ΔΔ/erg3ΔΔ mutant C. albicans were grown in YPAD media at 30° C. and treated with different concentrations of the tested hybrids. Growth was measured by recording the OD600 values every 40 minutes over a 48-h course on an automated plate reader.
# Growth curve analyses: Growth curves were determined using the double-dilution method in 96-well plates. Starter cultures were streaked from glycerol stock onto YPAD agar plates and grown for 24 h at 30° C. Colonies were suspended in 1 mL PBS and diluted to 1×10^−3 OD600 and then diluted 1:100 into fresh medium. Hybrids dissolved in DMSO were added to YPAD broth (32 μL stock solution in 1218 μL of YPAD broth), and serial double dilutions of hybrids in YPAD were prepared in flat-bottomed 96-well microplates (Corning) to enable testing of concentrations ranging from 64 μg/mL to 1 μg/mL. Control wells with yeast cells but no drug (100% growth) and blank wells containing only YPAD (0% growth) were prepared. An equal volume (100 μL) of yeast suspensions in YPAD broth was added to each well with the exceptions of the blank wells. Growth was determined at 30° C. by measuring the OD600 using a plate reader (Infinite M200 PRO, Tecan) every 40 minutes over 48 h. Each concentration was tested in triplicate, and results were confirmed by two independent sets of experiments. FLC and VOR were used as control drugs.
smiles,measurement,setting,value
CC(C)Cc1ccc([C@@H](C)C(=O)NC[C@](O)(Cn2cncn2)c2ccc(F)cc2F)cc1 [Hybrid 2],MIC80 against C. albicans 24433,C. albicans ATCC 24433,0.015 µg/mL
same,MIC80 against C. dubliniensis T-99,C. dubliniensis T-99,0.12 µg/mL
same,MIC80 against C. albicans SC5314,C. albicans SC5314,0.007 µg/mL
same,MIC80 against C. tropicalis 660,C. tropicalis 660,0.5 µg/mL
same,MIC80 against C. parapsilosis 22019,[1],0.015 µg/mL
same,MIC80 against C. albicans P-87,C. albicans P-87,0.007 µg/mL
same,MIC80 against C. albicans 90028,C. albicans ATCC 90028,0.007 µg/mL
same,MIC80 against C. guilliermondii T-47,C. guilliermondii T-47,0.06 µg/mL
same,MIC80 against C. albicans 742,[2],64 µg/mL
same,MIC against C. auris 5001,C. auris ATCC MYA5001,0.06 µg/mL
same,MIC against C. auris 5002,C. auris ATCC MYA5002,1 µg/mL
same,"Antifungal potency (MIC80) in comparison with FLC, VOR or the corresponding stereoisomer",[3],lowest MIC80 values against all of the azole-susceptible strains
same,MIC80 against C. albicans SN152,C. albicans SN152,0.007 µg/mL
CC(C(=O)O)c1ccc(-c2ccccc2)c(F)c1 (centres unmarked) [flurbiprofen],Effect on growth (OD600) of the double knockout mutant,[4],Dose-dependent growth reduction
CC(C)Cc1ccc([C@@H](C)C(=O)NC[C@@](O)(Cn2cncn2)c2ccc(F)cc2F)cc1 [Hybrid 3],MIC80 against C. albicans 24433,C. albicans ATCC 24433,0.12 µg/mL
same,MIC80 against C. dubliniensis T-99,C. dubliniensis T-99,1 µg/mL
same,MIC80 against C. albicans SC5314,C. albicans SC5314,0.03 µg/mL
same,MIC80 against C. tropicalis 660,C. tropicalis 660,1 µg/mL
same,MIC80 against C. parapsilosis 22019,[1],0.5 µg/mL
same,MIC80 against C. albicans P-87,C. albicans P-87,0.03 µg/mL
same,MIC80 against C. albicans 90028,C. albicans ATCC 90028,0.06 µg/mL
same,MIC80 against C. guilliermondii T-47,C. guilliermondii T-47,1 µg/mL
same,MIC80 against C. albicans 742,[2],64 µg/mL
same,"Antifungal potency (MIC80) in comparison with FLC, VOR or the corresponding stereoisomer",[3],more potent than the corresponding S-configured ibuprofen hybrid 4
same,MIC80 against C. albicans SN152,C. albicans SN152,0.06 µg/mL
CC(C)Cc1ccc(C(C)C(=O)O)cc1 (centres unmarked) [ibuprofen],Effect on growth (OD600) of the double knockout mutant,[4],Dose-dependent growth reduction
O=C(NC[C@](O)(Cn1cncn1)c1ccc(F)cc1F)c1ccccc1O [Hybrid 21],MIC80 against C. albicans 24433,C. albicans ATCC 24433,0.12 µg/mL
same,MIC80 against C. dubliniensis T-99,C. dubliniensis T-99,2 µg/mL
same,MIC80 against C. albicans SC5314,C. albicans SC5314,0.12 µg/mL
same,MIC80 against C. tropicalis 660,C. tropicalis 660,0.12 µg/mL
same,MIC80 against C. parapsilosis 22019,[1],1 µg/mL
same,MIC80 against C. albicans P-87,C. albicans P-87,0.12 µg/mL
same,MIC80 against C. albicans 90028,C. albicans ATCC 90028,0.25 µg/mL
same,MIC80 against C. guilliermondii T-47,C. guilliermondii T-47,1 µg/mL
same,MIC80 against C. albicans 742,[2],>64 µg/mL
same,MIC against C. auris 5001,C. auris ATCC MYA5001,0.25 µg/mL
same,MIC against C. auris 5002,C. auris ATCC MYA5002,8 µg/mL
same,MIC80 against C. albicans SN152,C. albicans SN152,0.12 µg/mL

# Reference: patent US20250018048A1, “FLUCONAZOLE-COX INHIBITOR HYBRIDS: A DUAL-ACTING CLASS OF ANTIFUNGAL AZOLES” (Ramot at Tel-Aviv University Ltd., priority 2022, published 2025)
